# Measurements published in patent publication US4298739A, “Novel carbostyril derivatives” (priority 1977, dated 1981).
# Assays:
# rabbit platelet [1] = assay: Collagen-induced aggregation in rabbit platelets (AG-II Aggregometer); assay type: cell-based; parameters: inhibition: dose or concentration left out as unconfirmed; settings: Oryctolagus cuniculus, Platelet, read-out: Inhibition effect on collagen induced aggregation in rabbit platelet
# Method in brief: (§1)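 Rabbit citrated PRP, diluted with PPP to 300,000/mm^3 platelets for ADP or 450,000/mm^3 for collagen, was preincubated with compound 1 min at 37° C. before inducer was added. ADP at 7.5×10^-5 M or collagen supernatant in Auren Beronal buffer pH 7.35; transmittance change recorded, percent inhibition derived.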
# rabbit platelet [2] = assay: ADP-induced aggregation in rabbit platelets (AG-II Aggregometer); assay type: cell-based; parameters: inhibition: dose or concentration left out as unconfirmed; settings: Oryctolagus cuniculus, Platelet, read-out: Inhibition effect on ADP-induced aggregation in rabbit platelet
# Method in brief: as §1
SMILES,inhibition at 100 µM (stock) (rabbit platelet [1]; 10^-4 mole),inhibition at 10 µM (stock) (rabbit platelet [1]; 10^-5 mole),inhibition at 1 µM (stock) (rabbit platelet [1]; 10^-6 mole),inhibition at 100 µM (stock) (rabbit platelet [2]; 10^-4 mole),inhibition at 10 µM (stock) (rabbit platelet [2]; 10^-5 mole),inhibition at 1 µM (stock) (rabbit platelet [2]; 10^-6 mole),inhibition (rabbit platelet [1]),inhibition (rabbit platelet [2])
"CC(=O)OC1CCC(N(C)C(=O)CCCOc2ccc3[nH]c(=O)ccc3c2)CC1 (centres unmarked) [compound 3, 6-{3-[N-Methyl-N-(4-acetyloxycyclohexyl)aminocarbonyl]propoxy}carbostyril]",90.8%,84.8%,61.9%,91.5%,75%,20.8%,,
"CN(C(=O)CCCOc1ccc2[nH]c(=O)ccc2c1)C1CCCCC1 [compound 16, 6-[3-(N-Methyl-N-cyclohexylaminocarbonyl)propoxy]carbostyril]",,,,,,,90.5%,91.7%
